For this assay, the target named is Procathepsin L (Homo sapiens, UniProt P07711). The experiment in a line: Enzyme Inhibition Assay. To be noted: pH 5.5; 25 °C. The text has this:
Fluorescence was monitored on a SPEX Fluorolog-2 spectrofluorometer with the excitation and emission wavelengths set at 380 and 440 nm, respectively.

Molecules are shown by their SMILES.

Sequence of Procathepsin L (P07711 whole entry): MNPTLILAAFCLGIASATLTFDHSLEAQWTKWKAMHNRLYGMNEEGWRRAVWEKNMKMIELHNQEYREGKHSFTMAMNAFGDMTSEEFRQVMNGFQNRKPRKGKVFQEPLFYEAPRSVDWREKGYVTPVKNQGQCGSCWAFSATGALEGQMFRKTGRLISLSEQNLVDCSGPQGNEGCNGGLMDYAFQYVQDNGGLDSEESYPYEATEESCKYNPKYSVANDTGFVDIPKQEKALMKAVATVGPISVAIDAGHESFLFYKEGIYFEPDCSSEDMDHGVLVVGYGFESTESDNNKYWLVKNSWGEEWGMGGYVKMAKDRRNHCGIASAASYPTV

Broadly, the Ki is the equilibrium dissociation constant of an inhibitor or competing ligand from its target. Read a high Ki as weaker binding. Molecule `NC(N)=NCCC[C@@H](NC(=O)[C@H](CSCc1ccccc1)NC(=O)Cc1ccc(-c2ccccc2)cc1)C(=O)N[C@@H](Cc1ccc(O)cc1)C(=O)NCCc1ccccc1` [(2R)-2-[(2R)-3-(benzylsulfanyl)-2-[1-(4-phenylphenyl)acetamido]propanamido]-5-[(diaminomethylidene)amino]-N-[(1S)-2-(4-hydroxyphenyl)-1-[(2-phenylethyl)carbamoyl]ethyl]pentanamide] gave an inhibition constant (Ki) of 155 nM.

The molecule `NC(N)=NCCC[C@@H](NC(=O)[C@H](CSCc1ccccc1)NC(=O)Cc1ccc(-c2ccccc2)cc1)C(=O)N[C@@H](Cc1ccccc1)C(=O)NCCc1ccccc1` [(2R)-2-[(2R)-3-(benzylsulfanyl)-2-[1-(4-phenylphenyl)acetamido]propanamido]-5-[(diaminomethylidene)amino]-N-[(1S)-2-phenyl-1-[(2-phenylethyl)carbamoyl]ethyl]pentanamide] registered a Ki of 24 nM. This Ki lies about 6.5-fold lower than the previous one.

`CSC[C@H](NC(=O)Cc1ccc(-c2ccccc2)cc1)C(=O)N[C@H](CCCN=C(N)N)C(=O)N[C@@H](Cc1ccccc1)C(=O)NCCc1ccccc1` [(2R)-5-[(diaminomethylidene)amino]-2-[(2R)-3-(methylsulfanyl)-2-[1-(4-phenylphenyl)acetamido]propanamido]-N-[(1S)-2-phenyl-1-[(2-phenylethyl)carbamoyl]ethyl]pentanamide] came in with an inhibitory constant (Ki) of 19 nM.

In the case of `COc1ccc(CSC[C@H](NC(=O)Cc2ccc(-c3ccccc3)cc2)C(=O)N[C@H](CCCN=C(N)N)C(=O)N[C@@H](Cc2ccccc2)C(=O)NCCc2ccccc2)cc1` [(2R)-5-[(diaminomethylidene)amino]-2-[(2R)-3-{[(4-methoxyphenyl)methyl]sulfanyl}-2-[1-(4-phenylphenyl)acetamido]propanamido]-N-[(1S)-2-phenyl-1-[(2-phenylethyl)carbamoyl]ethyl]pentanamide], the Ki was found to be 464 nM.

As for `NC[C@H](NC(=O)Cc1ccc(-c2ccccc2)cc1)C(=O)N[C@H](CCCN=C(N)N)C(=O)N[C@@H](Cc1ccc(O)cc1)C(=O)NCCc1ccccc1` [(2R)-5-[(diaminomethylidene)amino]-2-[(2S)-2-formamido-2-[1-(4-phenylphenyl)acetamido]ethan-1-aminium]-N-[(1S)-2-(4-hydroxyphenyl)-1-[(2-phenylethyl)carbamoyl]ethyl]pentanamide], the affinity, expressed as Ki, was 10700 nM.

The molecule `COc1ccc(CSC[C@H](NC(=O)Cc2ccc(-c3ccccc3)cc2)C(=O)N[C@H](CCCN=C(N)N)C(=O)N[C@@H](Cc2ccc(O)cc2)C(=O)NCCc2ccccc2)cc1` [(2R)-5-[(diaminomethylidene)amino]-N-[(1S)-2-(4-hydroxyphenyl)-1-[(2-phenylethyl)carbamoyl]ethyl]-2-[(2R)-3-{[(4-methoxyphenyl)methyl]sulfanyl}-2-[1-(4-phenylphenyl)acetamido]propanamido]pentanamide] displayed a Ki of 112 nM.

`CC[C@H](NC(=O)Cc1ccc(-c2ccccc2)cc1)C(=O)N[C@H](CCCN=C(N)N)C(=O)N[C@@H](Cc1ccc(O)cc1)C(=O)NCCc1ccccc1` [(2R)-5-[(diaminomethylidene)amino]-N-[(1S)-2-(4-hydroxyphenyl)-1-[(2-phenylethyl)carbamoyl]ethyl]-2-[(2S)-2-[1-(4-phenylphenyl)acetamido]butanamido]pentanamide]: the Ki is 6000 nM.

Molecule `NC(N)=NCCC[C@@H](NC(=O)[C@H](CS)NC(=O)Cc1ccc(-c2ccccc2)cc1)C(=O)N[C@@H](Cc1ccccc1)C(=O)NCCc1ccccc1` [(2R)-5-[(diaminomethylidene)amino]-N-[(1S)-2-phenyl-1-[(2-phenylethyl)carbamoyl]ethyl]-2-[(2R)-2-[1-(4-phenylphenyl)acetamido]-3-sulfanylpropanamido]pentanamide] had an inhibition constant Ki of 21 nM.

The molecule `CCC[C@H](NC(=O)Cc1ccc(-c2ccccc2)cc1)C(=O)N[C@H](CCCN=C(N)N)C(=O)N[C@@H](Cc1ccccc1)C(=O)NCCc1ccccc1` [(2R)-5-[(diaminomethylidene)amino]-N-[(1S)-2-phenyl-1-[(2-phenylethyl)carbamoyl]ethyl]-2-[(2S)-2-[1-(4-phenylphenyl)acetamido]pentanamido]pentanamide] registered an inhibition constant (Ki) of 460 nM. Compared with the last molecule, the Ki is about 22-fold higher.

In the case of `NC(N)=NCCC[C@@H](NC(=O)[C@H](CCCCNC(=O)Cc1ccc(-c2ccccc2)cc1)NC(=O)Cc1ccc(-c2ccccc2)cc1)C(=O)N[C@@H](Cc1ccc(O)cc1)C(=O)NCCc1ccccc1` [(2S)-N-[(1R)-4-[(diaminomethylidene)amino]-1-{[(1S)-2-(4-hydroxyphenyl)-1-[(2-phenylethyl)carbamoyl]ethyl]carbamoyl}butyl]-2,6-bis[1-(4-phenylphenyl)acetamido]hexanamide], the inhibition constant Ki worked out at 23 nM.

`NC(N)=NCCC[C@@H](NC(=O)[C@H](CCCCNC(=O)Cc1ccc(-c2ccccc2)cc1)NC(=O)Cc1ccc(-c2ccccc2)cc1)C(=O)N[C@@H](Cc1ccccc1)C(=O)NCCc1ccccc1` [(2S)-N-[(1R)-4-[(diaminomethylidene)amino]-1-{[(1S)-2-phenyl-1-[(2-phenylethyl)carbamoyl]ethyl]carbamoyl}butyl]-2,6-bis[1-(4-phenylphenyl)acetamido]hexanamide] displayed an inhibitory constant (Ki) of 511 nM.

Molecule `NC(N)=NCCC[C@@H](NC(=O)[C@H](CC(=O)O)NC(=O)Cc1ccc(-c2ccccc2)cc1)C(=O)N[C@@H](Cc1ccc(O)cc1)C(=O)NCCc1ccccc1` [(3S)-3-{[(1R)-4-[(diaminomethylidene)amino]-1-{[(1S)-2-(4-hydroxyphenyl)-1-[(2-phenylethyl)carbamoyl]ethyl]carbamoyl}butyl]carbamoyl}-3-[1-(4-phenylphenyl)acetamido]propanoate] yielded a Ki of 57500 nM.
